Test results published in patent publication US20160017312A1, “METHOD FOR MODULATING A BACTERIAL INVASION SWITCH” (priority 2012, published 2016).

Tested on: S. meliloti cells
Assay: Whole cell motility (swimming colonies) with added calcium
Assay type: cell-based, Sinorhizobium meliloti
Settings: 1 mM Ca; protease active, non-swimming S. meliloti cells
Protocol: Example 2. In no calcium or low calcium condition, most of ExoRm is in the monomeric form sensitive to protease digestion. Adding 1 mM or more Ca will turn ExoRm into dimeric form, preventing protease from binding and digesting ExoRm. So Ca is an indirect inhibitor of the protease. […] This is a typical indirect inhibitor. In the same fashion, most ions are indirect inhibitors of ExoRm protease.
Example 1. Whole cell motility assay: The whole cell motility assay is based on the fact that inhibition of the protease lead to ExoRm increase and the cell becoming motile. The initial condition may be set with either low pH or low ion concentration, so that S. meliloti cells will form non-swimming colonies. The putative direct or indirect inhibitors can be mixed with S. meliloti cells in soft agar plates. The ones that can make S. meliloti cells to form swimming colonies are the potential direct or indirect inhibitors.
Bacterial cell motility was examined using swarming plates containing 0.3% agar as described previously with some modifications. Briefly, fresh cell cultures were prepared and diluted to OD600 of 0.1. Then 2 μL of each diluted culture was inoculated into LB/MC soft agar plate and incubated for 2-3 days to determine colony size.

[Ca+2] [Ca]
effect on swimming of S. meliloti cells: turn protease active, non-swimming S. meliloti cells into swimming cells
